The text below walks through data of paper PMC6713143, “Design, synthesis and biological activity of selective hCAs inhibitors based on 2-(benzylsulfinyl)benzoic acid scaffold” (Journal of Enzyme Inhibition and Medicinal Chemistry, 2019).

What all share (assay type): biochemical
Settings in all cases: mean from three determinations, errors 5–10%

One experiment deals with T1, hCA I (Homo sapiens, UniProt P00915).
T1 construct: made in house
Description: stopped-flow CO2 hydrase assay, hCA I. How it is done:
(§1) An Applied Photophysics stopped-flow instrument has been used for assaying the CA catalysed CO2 hydration activity. […] The CO2 concentrations ranged from 1.7 to 17 mM for the determination of the kinetic parameters and inhibition constants. In particular, CO2 was bubbled in distilled deionised water for 30 min till saturation. A CO2 kit (Sigma, Milan, Italy) was used to measure the concentration in serially diluted solutions from the saturated one at the same temperature. […] The uncatalyzed rates were determined in the same manner and subtracted from the total observed rates. Stock solutions of inhibitor (1 µM) were prepared in distilled-deionised water and dilutions up to 0.1 nM were done thereafter with the assay buffer. […] The inhibition constants were obtained by non-linear least-squares methods using PRISM 3 and the Cheng-Prusoff equation[29], and represent the average from at least three different determinations. All recombinant CA isoforms were obtained in-house as previously reported[30]^,[31].

In a further experiment the target is T2, hCA II (Homo sapiens, UniProt P00918).
T2 construct: made in house
Description: stopped-flow CO2 hydrase assay, hCA II. How it is done:
as §1

The target in a further experiment is T3, hCA IX (Homo sapiens, UniProt Q16790).
T3 construct: made in house
The experiment is described as follows: stopped-flow CO2 hydrase assay, hCA IX. How it is done:
as §1

Another experiment deals with T4, hCA XII (Homo sapiens, UniProt O43570).
T4 construct: made in house
T4 sequence (O43570 25-354): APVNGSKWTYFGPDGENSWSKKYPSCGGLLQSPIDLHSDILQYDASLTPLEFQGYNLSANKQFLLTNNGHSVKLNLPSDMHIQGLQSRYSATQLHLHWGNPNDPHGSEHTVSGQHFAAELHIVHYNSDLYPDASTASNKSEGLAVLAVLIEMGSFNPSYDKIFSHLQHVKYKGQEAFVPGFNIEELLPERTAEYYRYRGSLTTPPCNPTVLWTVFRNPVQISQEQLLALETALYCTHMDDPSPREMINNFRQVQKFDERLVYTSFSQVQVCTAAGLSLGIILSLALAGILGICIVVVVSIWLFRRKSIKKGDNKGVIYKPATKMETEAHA
The experiment is described as follows: stopped-flow CO2 hydrase assay, hCA XII. On the procedure:
as §1

T1 sequence (P00915 whole entry): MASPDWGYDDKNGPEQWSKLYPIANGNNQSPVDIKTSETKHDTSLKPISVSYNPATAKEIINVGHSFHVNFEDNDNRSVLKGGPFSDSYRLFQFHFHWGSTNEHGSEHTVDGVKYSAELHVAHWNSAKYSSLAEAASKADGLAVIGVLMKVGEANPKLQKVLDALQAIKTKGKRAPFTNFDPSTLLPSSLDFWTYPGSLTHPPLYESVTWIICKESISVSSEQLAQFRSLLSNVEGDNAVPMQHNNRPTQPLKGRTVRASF

With `O=C(O)c1ccccc1[S@+]([O-])Cc1ccccc1` [(R)-5], the Ki on hCA I is more than 100 µM; at hCA II it was 0.21 µM; on hCA IX it was 1.4 µM.

With `COC(=O)c1ccccc1[S@+]([O-])Cc1ccccc1` [(R)-8], the Ki at hCA I is more than 100 µM; on hCA II, 84.9 µM; at hCA IX, 15.3 µM.

In the case of `COC(=O)c1ccccc1[S@+]([O-])Cc1ccc(Cl)cc1` [(R)-11], the Ki is more than 100 µM at hCA I, more than 100 µM on hCA II and 1.4 µM at hCA IX.

For the molecule `NC(=O)c1ccccc1[S@+]([O-])Cc1ccccc1` [(R)-17], the figures for the Ki at hCA I, on hCA II and on hCA IX were more than 100 µM, 52.2 µM and 2.2 µM, respectively.

As for `CNC(=O)c1ccccc1[S@+]([O-])Cc1ccccc1` [(R)-20], the Ki on hCA I is more than 100 µM; on hCA II it was 52.2 µM; at hCA IX it was 22.8 µM.

Take `O=C(O)c1ccccc1[S@@+]([O-])Cc1ccccc1` [(S)-5]: the Ki was more than 100 µM at hCA I, 0.093 µM at hCA II and 1.2 µM on hCA IX.

In the case of `COC(=O)c1ccccc1[S@@+]([O-])Cc1ccccc1` [(S)-8], the Ki was more than 100 µM at hCA I, 65.7 µM on hCA II and 20 µM at hCA IX.

With `COC(=O)c1ccccc1[S@@+]([O-])Cc1ccc(Cl)cc1` [(S)-11], the Ki on hCA I is more than 100 µM; at hCA II, more than 100 µM; at hCA IX it was 18.1 µM.

In the case of `NC(=O)c1ccccc1[S@@+]([O-])Cc1ccccc1` [(S)-17], the Ki at hCA I is more than 100 µM; on hCA II, 51.9 µM; at hCA IX it was 1.9 µM.

On to `CNC(=O)c1ccccc1[S@@+]([O-])Cc1ccccc1` [(S)-20], for which the Ki at hCA I is more than 100 µM; on hCA II it was 38.9 µM; at hCA IX, 24.6 µM.

On to `CC(=O)c1ccccc1SCc1ccccc1` [Compound 1], for which the Ki at hCA I was more than 100 µM; at hCA II, more than 100 µM; on hCA IX, 1.1 µM.

Take `CC(=O)c1ccccc1[S+]([O-])Cc1ccccc1` (stereo not drawn) [Compound 2]: the Ki at hCA I is more than 100 µM; at hCA II it was 63.2 µM; on hCA IX, 2 µM.

`CC(=O)c1ccccc1S(=O)(=O)Cc1ccccc1` [Compound 3]: the inhibitory constant (Ki) on hCA I was more than 100 µM; on hCA II it was more than 100 µM; on hCA IX, 16.4 µM.

For the molecule `O=C(O)c1ccccc1S(=O)(=O)Cc1ccccc1` [Compound 6], the inhibitory constant (Ki) on hCA I was more than 100 µM; on hCA II, more than 100 µM; on hCA IX, 2.3 µM.

For the molecule `COC(=O)c1ccccc1SCc1ccccc1` [Compound 7], the figures for the Ki at hCA I, on hCA II and on hCA IX were more than 100 µM, 75.2 µM and 15 µM, respectively.

With `COC(=O)c1ccccc1S(=O)(=O)Cc1ccccc1` [Compound 9], the Ki is more than 100 µM on hCA I, more than 100 µM at hCA II and 11.4 µM on hCA IX.

Consider `COC(=O)c1ccccc1SCc1ccc(Cl)cc1` [Compound 10], for which the values for the Ki on hCA I, on hCA II and at hCA IX were more than 100 µM, 45.7 µM and 1 µM, respectively.

Regarding `COC(=O)c1ccccc1S(=O)(=O)Cc1ccc(Cl)cc1` [Compound 12], the Ki was more than 100 µM at hCA I, 40.1 µM on hCA II and 21.1 µM on hCA IX.

Regarding `COC(=O)c1ccccc1SCC(=O)c1ccccc1` [Compound 13], the Ki at hCA I, on hCA II and at hCA IX was more than 100 µM in each case.

`COC(=O)c1ccccc1[S+]([O-])CC(=O)c1ccccc1` (stereo not drawn) [Compound 14]: the Ki at hCA I, at hCA II and on hCA IX was more than 100 µM throughout.

As for `COC(=O)c1ccccc1S(=O)(=O)CC(=O)c1ccccc1` [Compound 15], the Ki on hCA I, on hCA II and on hCA IX was more than 100 µM in each case.

For the molecule `NC(=O)c1ccccc1SCc1ccccc1` [Compound 16], the Ki on hCA I is more than 10 µM; at hCA II, 8.22 µM; at hCA IX it was 0.046 µM; on hCA XII, 2.66 µM. Besides, the “Ki hCA XII” value on hCA XII is recorded as “medium-potency inhibitor”.

Regarding `NC(=O)c1ccccc1S(=O)(=O)Cc1ccccc1` [Compound 18], the inhibitory constant (Ki) on hCA I was more than 10 µM; at hCA II it was 2.67 µM; on hCA IX, more than 10 µM; on hCA XII, 0.066 µM. The “Ki hCA IX” value at hCA IX is “completely lost the affinity”.

Take `CNC(=O)c1ccccc1SCc1ccccc1` [Compound 19]: the results for the Ki on hCA I, at hCA II and on hCA IX were more than 100 µM, 86.3 µM and 19.8 µM, respectively.

Regarding `CNC(=O)c1ccccc1S(=O)(=O)Cc1ccccc1` [Compound 21], the Ki is more than 100 µM at hCA I, 68.2 µM at hCA II and 25.8 µM at hCA IX.

With `CCCC[S+]([O-])c1ccccc1C(=O)OC` (stereo not drawn) [Compound 22], at hCA I, the Ki is more than 100 µM and the “Ki hCA I” value was “inactive”. Besides, on hCA II, the inhibitory constant (Ki) was more than 100 µM and the “Ki hCA II” value was “inactive”. Besides, at hCA IX, the Ki is more than 100 µM and the “Ki hCA IX” value is “inactive”.

As for `CCCCC[S+]([O-])c1ccccc1C(=O)OC` (stereo not drawn) [Compound 23], on hCA I, the Ki is more than 100 µM and the “Ki hCA I” value was “inactive”. Also, on hCA II, the Ki was more than 100 µM and the “Ki hCA II” value was “inactive”. For the same molecule, at hCA IX, the inhibition constant (Ki) is more than 100 µM and the “Ki hCA IX” value was “inactive”.

As for `CSc1ccccc1C(N)=O` [Compound 24], the inhibitory constant (Ki) on hCA I was more than 100 µM; at hCA II, more than 100 µM; at hCA IX, 6.5 µM; on hCA XII, more than 100 µM.

`C[S+]([O-])c1ccccc1C(N)=O` (stereo not drawn) [Compound 25]: the Ki at hCA I was more than 100 µM; at hCA II it was more than 100 µM; on hCA IX, 34.5 µM; at hCA XII, more than 100 µM.

`CS(=O)(=O)c1ccccc1C(N)=O` [Compound 26]: the Ki on hCA I was more than 100 µM; at hCA II, more than 100 µM; on hCA IX, 14 µM; at hCA XII, more than 100 µM.

On to `CCSc1ccccc1C(N)=O` [Compound 27], for which the Ki was more than 100 µM on hCA I, more than 100 µM on hCA II, 16.7 µM on hCA IX and more than 100 µM on hCA XII.

On to `CC[S+]([O-])c1ccccc1C(N)=O` (stereo not drawn) [Compound 28], for which the inhibition constant (Ki) on hCA I was more than 100 µM; at hCA II, more than 100 µM; on hCA IX it was 40.9 µM; at hCA XII, more than 100 µM.

In the case of `CCS(=O)(=O)c1ccccc1C(N)=O` [Compound 29], the Ki is more than 100 µM on hCA I, more than 100 µM at hCA II, 22.7 µM on hCA IX and more than 100 µM at hCA XII.

In the case of `CCCSc1ccccc1C(N)=O` [Compound 30], the Ki at hCA I is more than 100 µM; at hCA II, 90.9 µM; at hCA IX, more than 100 µM; on hCA XII, more than 100 µM.

Regarding `CCC[S+]([O-])c1ccccc1C(N)=O` (stereo not drawn) [Compound 31], the Ki at hCA I is more than 100 µM; on hCA II, more than 100 µM; at hCA IX, 38.2 µM; on hCA XII it was more than 100 µM.

Turning to `CCCS(=O)(=O)c1ccccc1C(N)=O` [Compound 32], the Ki is more than 100 µM at hCA I, more than 100 µM at hCA II, 2.3 µM at hCA IX and more than 100 µM at hCA XII.

With `CCCCSc1ccccc1C(N)=O` [Compound 33], the Ki on hCA I was more than 100 µM; at hCA II, more than 100 µM; at hCA IX, 2.5 µM; at hCA XII it was more than 100 µM.

For `CCCC[S+]([O-])c1ccccc1C(N)=O` (stereo not drawn) [Compound 34], the inhibition constant Ki on hCA I is more than 100 µM; on hCA II it was more than 100 µM; on hCA IX, 36.4 µM; on hCA XII it was more than 100 µM.

Turning to `CCCCS(=O)(=O)c1ccccc1C(N)=O` [Compound 35], the Ki at hCA I was more than 100 µM; on hCA II, more than 100 µM; at hCA IX, 13.5 µM; on hCA XII, more than 100 µM.

Consider `CCCCCSc1ccccc1C(N)=O` [Compound 36], for which the Ki on hCA I is more than 100 µM; at hCA II, more than 100 µM; on hCA IX, 2.7 µM; on hCA XII, more than 100 µM.

On to `CCCCC[S+]([O-])c1ccccc1C(N)=O` (stereo not drawn) [Compound 37], for which the inhibitory constant (Ki) on hCA I is more than 100 µM; on hCA II it was more than 100 µM; on hCA IX, 27.3 µM; at hCA XII, more than 100 µM.

With `CCCCCS(=O)(=O)c1ccccc1C(N)=O` [Compound 38], the Ki at hCA I is more than 100 µM; on hCA II it was more than 100 µM; at hCA IX it was 8.7 µM; on hCA XII it was more than 100 µM.

In the case of `O=C(O)c1ccccc1OCc1ccccc1` [Compound 39], the Ki on hCA I, on hCA II, on hCA IX and on hCA XII was more than 100 µM each time.

Consider `O=C(O)c1ccccc1NCc1ccccc1` [Compound 40], for which the Ki at hCA I, at hCA II, at hCA IX and on hCA XII was more than 100 µM each time.

For `O=C(O)c1ccccc1CCc1ccccc1` [Compound 41], the Ki at hCA I, at hCA II, at hCA IX and on hCA XII was more than 100 µM each time.

Turning to `O=C(Cc1ccccc1)Nc1ccccc1C(=O)O` [Compound 42], the Ki at hCA I, at hCA II, at hCA IX and on hCA XII was more than 100 µM throughout.

Consider `Nc1ccccc1C(=O)O` [Compound 43, anthranilic acid], for which the Ki at hCA I, at hCA II, at hCA IX and on hCA XII was more than 100 µM throughout.

Usually Ki stands for a dissociation constant, usually derived from enzyme kinetics or from competition with a known ligand.
